Experimental data published in patent publication US4194055A, “15,16-dioxy prostenoic acids and esters” (American Cyanamid Company, priority 1978, dated 1980).

Legend:
[1] = tested on: basal gastric acid secretion; assay: Inhibition of gastric acid secretion in the acute gastric fistula rat; format: in vivo, Female Sprague-Dawley rats; details: intraduodenal
Method: The compounds of this invention are also useful as inhibitors of gastric acid secretion and peptic ulcer formation and may be used for the treatment of gastric hyperacidity, gastric erosion, and peptic ulcer. Inhibition of basal gastric acid secretion can be determined by the following procedure.
Female Sprague-Dawley rats weighing 140-160 grams are fasted in individual cages for 18-24 hours. The rats are then lightly anesthetized with ether and their front teeth extracted to avoid destruction of the plastic cannula. A midline incision is then made and the stomach and duodenum exposed. A flanged polyvinyl tube is inserted into the fundic portion of the stomach and secured with a purse string suture line using 4-O Mersilene. The rat is then dosed by injection of the compound into the duodenum (1.0 ml. per 100 gram body weight). After dosing, the abdominal wall and skin are closed using metal wound clips. The rat is replaced in a cage containing a longitudinal slit to allow the polyvinyl tube to hang freely. An 8 ml. plastic collecting tube is attached to the flanged cannula and hangs freely below the cage. The first 30 minute sample is discarded designating this time as zero. The collecting tube is attached again and samples removed at the end of 60 and 120 minutes. The hourly samples are then transferred to a 15 ml. centrifuge and centrifuged for 5-10 minutes. Total and sediment volume are then recorded with the supernatant volume being used as volume of secretion. A 1 ml. or less aliquot is then removed and placed in a 50 ml. beaker containing 10 ml. of distilled water. This sample is then titrated using 0.01 N NaOH to pH 7.0 using a Beckman zeromatic pH meter. Volume, titratable acidity (meq/L) and total acid output (ueg/hour) are recorded. Percent inhibition is determined by comparison with the appropriate control. Groups of three rats were used for preliminary testing, and groups of six rats were used for dose-response evaluations. All compounds are administered in a vehicle consisting of 0.5% methocel, 0.4% tween 80, and saline at a constant volume of 1 ml./100 gram rat. Samples are dispersed by sonification. Percent inhibition is calculated on basis of concurrent vehicle control.
In Table B which follows is given the effect on total acid output after 60 minutes (response A) and 120 minutes (response B) for various doses of representative compounds of this invention.

[2] = tested on: bronchospasms elicited by intravenous injections of 5-hydroxytryptamine; assay: Bronchodilator activity (Konzett assay) against 5-hydroxytryptamine; format: in vivo, guinea pigs; details: Cavia porcellus; three logarithmic cummulative intravenous doses; spasmogen 5-hydroxytryptamine i.v.; read-out: Bronchodilator Activity (Konzett Assays) ED50, Spasmogenic Agent 5-Hydroxytryptamine
Method: (§1) The compounds of this invention are useful as bronchodilators for the treatment of asthma and chronic bronchitis. Bronchodilator activity is determined in guinea pigs against bronchospasms elicited by intravenous injections of 5-hydroxytryptamine, histamine or acetylcholine by the Konzett procedure. [See J. Lulling, P. Lievens, F. El Sayed and J. Prignot, Arzneimittel-Forschung, 18, 955 (1968).]
(§2) In Table A which follows bronchodilator activity for representative compounds of this invention against one or more of three spasmogenic agents is expressed in an ED50 determined from the results obtained with three logarithmic cummulative intravenous doses.

[3] = tested on: bronchospasms elicited by intravenous injections of histamine; assay: Bronchodilator activity (Konzett assay) against histamine; format: in vivo, guinea pigs; details: Cavia porcellus; three logarithmic cummulative intravenous doses; spasmogen histamine i.v.; read-out: Bronchodilator Activity (Konzett Assays) ED50, Spasmogenic Agent Histamine
Method: as §1, §2

[4] = tested on: Mean arterial blood pressure; assay: Hypotensive activity in anesthetized normotensive rats; format: in vivo, Royalhart, Wistar strain, male; details: Rattus norvegicus, iv, infused over one minute, read-out: % Decrease Mean Arterial Blood Pressure
Method: The animals used are Royalhart, Wistar strain, male, normotensive rats weighing 250-300 g. The rats are anesthetized using a 100 mg./ml. saline solution of urethane at a rate of 900 mg./kg. intraperitoneally.
The instrumentation used in a Brush model 260 recorder, Statham mode P23Db pressure transducer and Harvard model 940 infusion pump with a 6 cc syringe at speed 4.
The left carotid artery is cannulated with polyethylene tubing for arterial blood pressure. The left external juglar vein is cannulated with polyethylene tubing for […] the test compound is infused over a one minute period in a volume of 0.5 ml., […] (ethanol, 1 M NaHCO3 or saline) and then flushed with 0.4 ml. of saline.
Mean arterial blood pressure is then measured in two test animals per compound against a control value.

[5] = tested on: bronchospasms elicited by intravenous injections of acetylcholine; assay: Bronchodilator activity (Konzett assay) against acetylcholine; format: in vivo, guinea pigs; details: Cavia porcellus; three logarithmic cummulative intravenous doses; spasmogen acetylcholine i.v.; read-out: Bronchodilator Activity (Konzett Assays) ED50, Spasmogenic Agent Acetylcholine
Method: as §1, §2

[6] = tested on: basal gastric acid secretion; assay: Inhibition of gastric acid secretion in the acute gastric fistula rat; format: in vivo, Female Sprague-Dawley rats; details: oral

Which results are given for `CCCCC(OC)C(O)/C=C/C1CCC(=O)C1CCCCCCC(=O)OCC` (mixture of isomers) [all racemic erythro ethyl 9-oxo-15-hydroxy-16-methoxy-13-trans-prostenoate]?
% Inhibition of Total Acid Output After 60 min. ([1]; 10 mg./kg.): 43%; % Inhibition of Total Acid Output After 120 min. ([1]; 10 mg./kg.): 0%

What does the source list for `CCCCC(O)C(O)/C=C/C1CCC(=O)C1CCCCCCC(=O)O` (mixture of isomers) [all racemic erythro-9-oxo-15,16-dihydroxy-13-trans-prostenoic acid]?
ED50 [2]: 0.537 mg/kg; ED50 [3]: 0.01 mg/kg

Which results are given for `CCCCC1OC(C)(C)OC1/C=C/C1C(OC2CCCCO2)CC(=O)C1C/C=C\CCCC(=O)O` (mixture of isomers) [d,l-erythro-9-oxo-11α-tetrahydropyranyloxy-15,16-isopropylidenedioxy-5-cis,13-trans-prostadienoic acid]?
% Inhibition of Total Acid Output After 60 min. ([1]; 10 mg./kg.): 55%; % Inhibition of Total Acid Output After 120 min. ([1]; 10 mg./kg.): 29%

Which inhibition in vivo at 1.3 mg/kg ([4]; 1.3 mg./kg.) does the source give for `CCCCC1OC(C)(C)OC1/C=C/C1CCC(=O)C1CCCCCCC(=O)O` (mixture of isomers) [d,l-erythro-9-oxo-15,16-isopropylidenedioxy-13-trans-prostenoic acid] here?
Its inhibition in vivo at 1.3 mg/kg is 63%.

And the inhibition in vivo at 2.5 mg/kg ([4]; 2.5 mg./kg.)?
Its inhibition in vivo at 2.5 mg/kg is 21%.

What does the source list for `CCCCC(O)C(O)CCC1CCC(=O)C1CCCCCCC(=O)O` (racemic) [all racemic erythro-9-oxo-15,16-dihydroxy-prostanoic acid]?
% Inhibition of Total Acid Output After 60 min. ([1]; 10 mg./kg.): 56%; % Inhibition of Total Acid Output After 120 min. ([1]; 10 mg./kg.): 46%

With `CCCC[C@H](OC)[C@H](O)/C=C/[C@H]1C=CC(=O)[C@@H]1C/C=C\CCCC(=O)O` (relative stereo) [d1-erythro-9-oxo-15-hydroxy-16-methoxy-5-cis,10,13-trans-prostatrienoic acid] as the compound, how does the inhibition in vivo at 1.9 mg/kg [4] read?
Its inhibition in vivo at 1.9 mg/kg is 26%.

With `CCCC[C@H](OC)[C@H](O)/C=C/[C@H]1[C@H](O)CC(=O)[C@@H]1C/C=C\CCCC(=O)O` (relative stereo) [d,1-erythro-9-oxo-11α,15-dihydroxy-16-methoxy-5-cis,13-trans-prostadienoic acid] as the compound, how does the inhibition in vivo at 1.8 mg/kg ([4]; 1.8 mg./kg.) read?
Its inhibition in vivo at 1.8 mg/kg is 44%.

Which results are given for `CCCC[C@H](OC)[C@H](O)/C=C/[C@H]1CCC(=O)[C@@H]1CCCCCCC(=O)O` (relative stereo) [d,1-erythro-9-oxo-15-hydroxy-16-methoxy-13-trans-prostenoic acid]?
inhibition in vivo at 2.1 mg/kg [4]: 29%; ED50 [5]: > 0.32 mg/kg; ED50 [3]: > 3.2 mg/kg

`CCCC[C@@H](O)[C@@H](O)/C=C/[C@H]1CCC(=O)[C@@H]1CCCCCCC(=O)OCC` (relative stereo) [d,l-erythro ethyl 9-oxo-15-epi-16-dihydroxy-13-trans-prostenoate] was tested. Which inhibition in vivo at 2.4 mg/kg [4] did it give?
The inhibition in vivo at 2.4 mg/kg was 33%.

Which inhibition in vivo at 2.3 mg/kg ([4]; 2.3 mg./kg.) does the source give for `CCCC[C@@H](OC)[C@@H](O)/C=C/[C@H]1CCC(=O)[C@@H]1CCCCCCC(=O)OCC` (relative stereo) [d,l-erythro ethyl 9-oxo-15-epi-hydroxy-16-methoxy-13-trans-prostenoate] here?
The inhibition in vivo at 2.3 mg/kg was 9%.

Which results are given for `CCCC[C@H](O)[C@H](O)/C=C/[C@H]1CCC(=O)[C@@H]1CCCCCCC(=O)O` (relative stereo) [d,l-erythro-9-oxo-15,16-dihydroxy-13-trans-prostenoic acid]?
inhibition in vivo at 2.1 mg/kg [4]: 23%; % Inhibition of Total Acid Output After 60 min. ([1]; 2.5 mg./kg.): 77%; % Inhibition of Total Acid Output After 120 min. ([1]; 2.5 mg./kg.): 76%

Which “% Inhibition of Total Acid Output After 60 min.” value ([1]; 10 mg./kg.) does the source give for `CCCC[C@@H](O)[C@@H](O)/C=C/[C@H]1CCC(=O)[C@@H]1CCCCCCC(=O)O` (relative stereo) [d,l-erythro-9-oxo-15-epi,16-dihydroxy-13-trans-prostenoic acid] here?
The value was 0%.

And the “% Inhibition of Total Acid Output After 120 min.” value ([1]; 10 mg./kg.)?
Its value is 42%.

How did the inhibition in vivo at 0.1 mg/kg ([4]; 0.1 mg./kg.) turn out when `CCCC[C@H](O)[C@H](O)/C=C/[C@H]1[C@H](O)CC(=O)[C@@H]1C/C=C\CCCC(=O)O` (relative stereo) [dl-erythro-9-oxo-11α,15,16-trihydroxy-5-cis,13-trans-prostadienoic acid] was run?
Its inhibition in vivo at 0.1 mg/kg is 6%.

What about the “% Inhibition of Total Acid Output After 60 min.” value ([6]; 5 mg./kg.) of the same compound?
The value was 86%.

And the “% Inhibition of Total Acid Output After 120 min.” value ([6]; 5 mg./kg.)?
The value was 89%.

What about the ED50 [2] of the same compound?
Its ED50 is 0.024 mg/kg.

What about the ED50 [5] of the same compound?
Its ED50 is 0.013 mg/kg.

What about the ED50 [3] of the same compound?
Its ED50 is 0.0098 mg/kg.

And the “% Inhibition of Total Acid Output After 60 min.” value ([1]; 10 mg./kg.)?
The value was 98%.

And the “% Inhibition of Total Acid Output After 120 min.” value ([1]; 10 mg./kg.)?
The value was 55%.

Which inhibition in vivo at 2 mg/kg ([4]; 2.0 mg./kg.) does the source give for `CCCC[C@@H](O)[C@@H](O)/C=C/[C@H]1[C@H](O)CC(=O)[C@@H]1C/C=C\CCCC(=O)O` (relative stereo) [dl-erythro-9-oxo-11α,15-epi,16-trihydroxy-5-cis,13-trans-prostadienoic acid] here?
The inhibition in vivo at 2 mg/kg was 57%.

And the “% Inhibition of Total Acid Output After 60 min.” value ([6]; 10 mg./kg.)?
Its value is 66%.

What about the “% Inhibition of Total Acid Output After 120 min.” value ([6]; 10 mg./kg.) of the same compound?
Its value is 65%.

And the ED50 [2]?
Its ED50 is 1.28 mg/kg.

What about the ED50 [5] of the same compound?
Its ED50 is 2.43 mg/kg.

And the “% Inhibition of Total Acid Output After 60 min.” value ([1]; 10 mg./kg.)?
The value was 100%.

What about the “% Inhibition of Total Acid Output After 120 min.” value ([1]; 10 mg./kg.) of the same compound?
Its value is 82%.

For `CCCC[C@@H](OC)[C@@H](O)/C=C/[C@H]1[C@H](O)CC(=O)[C@@H]1C/C=C\CCCC(=O)O` (relative stereo) [dl-erythro-9-oxo-11α,15-epi-15-hydroxy-16-methoxy-5-cis,13-trans-prostadienoic acid], which inhibition in vivo at 1.9 mg/kg [4] is on record?
Its inhibition in vivo at 1.9 mg/kg is 19%.

For `CCCC[C@@H](O)[C@@H](O)/C=C/[C@H]1C=CC(=O)[C@@H]1C/C=C\CCCC(=O)O` (relative stereo) [dl-erythro-9-oxo-15-epi, 16-dihydroxy-5-cis,10,13-trans-prostatrienoic acid], which inhibition in vivo at 2.1 mg/kg [4] is on record?
The inhibition in vivo at 2.1 mg/kg was 54%.

What does the source list for `CCCC[C@@H](OC)[C@@H](O)/C=C/[C@H]1CCC(=O)[C@@H]1CCCCCCC(=O)O` (relative stereo) [dl-erythro-9-oxo-15-epi-hydroxy-16-methoxy-13-trans-prostenoic acid]?
inhibition in vivo at 2.4 mg/kg [4]: 18%; ED50 [2]: 7.99 mg/kg; ED50 [5]: > 3.2 mg/kg; ED50 [3]: > 3.2 mg/kg

Which inhibition in vivo at 2.2 mg/kg ([4]; 2.2 mg./kg.) does the source give for `CCCC[C@@H](O)[C@@H](O)/C=C/[C@@H]1[C@@H](C/C=C\CCCC(=O)O)[C@@H](O)C[C@H]1O` (relative stereo) [dl-erythro-9α,11α,15-epi,16-tetrahydroxy-5-cis,13-trans-prostadienoic acid] here?
Its inhibition in vivo at 2.2 mg/kg is 20%.
